Assays:
[1] = test system: SY5Y-BACEGFP-SEAPAPPwt stable cells; details: at concentrations used; data not shown
BACE1 [2] = biological target: T1, BACE1 (Homo sapiens, UniProt P56817); assay: Cell-based BACE1 assay (sAPPβ ELISA-SEAP), SY5Y-BACEGFP-SEAPAPPwt stable cells; details: 6 hours, 96-well; TAPI-2 100 mM, BACE inhibitor IV 5 mM, AEBSF 500 mM, Cpd E 20 nM
T1 construct: expressed in transfected cells
Method: […] cells expressing BACEGFP and SEAPAPPwt were grown on standard cell culture plates in DMEM (Invitrogen) supplemented with 10% fetal bovine serum, 1% Pen/Strep/Glutamine, and 250 μg/ml zeocin. SEAPAPPwt is cleaved by BACE1 (β-secretase) as well as a secretase to release large extracellular fragments sAPPβ and sAPPα, respectively. Cell culture media containing these fragments was harvested and SEAP-sAPPβ was captured using 96-well plates coated with the sAPPβ specific antibody (sβwt). The ELISA plate was then incubated with the fluorescent alkaline phosphatase substrate 4-MUP (Sigma) at a final concentration of 30 μM (in 100 mM glycine, 1 mM MgCl2, 1 mM ZnCl2 at pH 9.8) for 1 hour before detection (excitation: 360 nm, emission: 449 nm).
SY5Y-BACEGFP-SEAPAPPwt stable cells were grown to 100% confluence on 96-well plates in quadruplicate and incubated for 6 hours with DMSO, TAPI-2 ([…]), RACE inhibitor IV ([…]), AEBSF ([…]), or Cpd E (20 nM) in […] of conditioned media (DMEM (invitrogen) supplemented with 10% fetal bovine serum, 1% Pen/Strep/Glutamine, and 250 μg/ml zeocin).
A sAPPβ ELISA-SEAR assay was conducted using […] of media.
Media was collected after 6 hrs incubation and […] was used in the BACE1 assay as described above.

HEK293-APPNFEV cells = details: read-out: reported IC50; cited from earlier work
BACE1 [3] = biological target: T2, BACE1 (Mus musculus, UniProt P56818); details: mouse model of AD; cited from earlier work
T2 construct: host or cells: mouse model of AD
T2 sequence (P56818 46-501): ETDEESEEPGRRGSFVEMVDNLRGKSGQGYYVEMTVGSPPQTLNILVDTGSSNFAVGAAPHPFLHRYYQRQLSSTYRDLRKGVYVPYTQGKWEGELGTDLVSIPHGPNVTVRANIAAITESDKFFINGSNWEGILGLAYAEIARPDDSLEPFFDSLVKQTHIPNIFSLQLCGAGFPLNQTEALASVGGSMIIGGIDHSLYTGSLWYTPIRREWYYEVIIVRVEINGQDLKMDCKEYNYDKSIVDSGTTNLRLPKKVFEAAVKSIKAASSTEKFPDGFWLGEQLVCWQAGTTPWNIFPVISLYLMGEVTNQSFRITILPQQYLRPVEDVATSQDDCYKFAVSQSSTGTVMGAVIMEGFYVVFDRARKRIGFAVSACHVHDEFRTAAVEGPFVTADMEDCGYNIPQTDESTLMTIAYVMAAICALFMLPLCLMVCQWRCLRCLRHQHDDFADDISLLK

[4] = p-glycoprotein inhibitor required to increase transport; cited from earlier work

T1 sequence (P56817 46-501): as the sequence (P56818 46-501) above, with S6P, I162V, I165L, T180S, A182V, V340I, A393L, H443Q counted along it

| SMILES | cellular toxicity [1] | effect on sAPPβ (BACE1 [2]) | also measured |
| --- | --- | --- | --- |
| NCCc1ccc(S(=O)(=O)F)cc1 [AEBSF] | do not exhibit significant cellular toxicity | dramatically reduced | – |
| C[C@@H](NC(=O)c1cc(C(=O)N[C@@H](Cc2ccccc2)[C@H](O)CNC2CC2)cc(N(C)S(C)(=O)=O)c1)c1ccccc1 [BACE inhibitor IV] | do not exhibit significant cellular toxicity | – | IC50 (HEK293-APPNFEV cells): 29 nM |
| C[C@H](NC(=O)Cc1cc(F)cc(F)c1)C(=O)N[C@H]1N=C(c2ccccc2)c2ccccc2N(C)C1=O [CpdE] | – | no effect | – |
| CCNc1cc(C(=O)N[C@@H](Cc2ccccc2)[C@H](O)CNCc2cccc(C(F)(F)F)c2)c(F)c(N2CCCCS2(=O)=O)c1 [GSK188909] | – | – | in vivo efficacy (BACE1 [3]): in vivo efficacy; brain penetration [4]: low brain penetration |
| CC(C)C[C@H](CC(=O)NO)C(=O)N[C@H](C(=O)N[C@@H](C)C(=O)NCCN)C(C)(C)C [TAPI-2] | – | no effect | – |

Reference: US20120214186A1, “METHODS AND COMPOSITIONS FOR DETECTING AND QUANTIFYING sAPPbeta” (priority 2006, published 2012)
